Values of other authors as cited in patent US10946075B1 (priority 2014, dated 2021).

Assays:
dogs [1] = conditions: dog, in vivo
rat gamete = conditions: in vivo
thyroid gland = conditions: rat, in vivo
humans = conditions: human
[2] = in vivo
[3] = in vivo; remark: listed apart in the source
mice [4] = conditions: mouse, in vivo
dogs [5] = conditions: dog, in vivo; remark: listed apart in the source
murine neuroblastoma = conditions: mouse, in vivo
mice [6] = conditions: mouse, in vivo, 16 mg/kg
rats = conditions: rat, in vivo

For `NCCC[C@](N)(C(=O)O)C(F)F` [DFMO, alpha-difluoromethylornithine], the radiation-induced cell death (cells) is given as 50-60 % of control, the “putrescine and spermidine levels” value (polyamine biosynthesis) is given as “nondetectable levels” and the spermine decrease (polyamine biosynthesis) is given as 50%.

For `O=C1O[C@H]([C@@H](O)CO)C(O)=C1O` [vitamin C, Ascorbic Acid], the “reduction of mortality rate” value (dogs [1]) is given as 50%, the “increase of gamete survival vs. controls (factor)” value (rat gamete) is given as 2.2 and the protection over control (hamster ovary cells) is given as “seven-fold”.

In the case of `C[S+](C)[O-]` [DMSO, Dimethylsulfoxide], the “induction of micronuclei by bystander effect cells” value (bystander effect cells) is listed as “completely suppressed”.

In the case of `[I-].[K+]` [KI, Potassium iodide], the “131I- excreted in urine” value (thyroid gland) is listed as 30% and the “approximate LD50 in humans” value (humans) is listed as ~500 mg/kg.

For Vitamin E, the white cell count [2] is listed as “doubled”.

For `CC1=C(/C=C/C(C)=C/C=C/C(C)=C/C=C/C=C(C)/C=C/C=C(C)/C=C/C2=C(C)CCCC2(C)C)C(C)(C)CCC1` [Beta Carotene], the survival [3] is listed as 80%.

For `Cc1cc2nc3c(=O)[nH]c(=O)nc-3n(C[C@H](O)[C@H](O)[C@H](O)CO)c2cc1C` [riboflavin], the “mortality and DNA damages” value (mice [4]) is listed as “higher mortality rates and more DNA damages”.

For `O=C([O-])CC(O)(CC(=O)[O-])C(=O)[O-].[Na+].[Na+].[Na+]` [sodium citrate], the treated dogs survived (dogs [5]) is given as 100%.

In the case of `O=C(O)CCCCC1CCSS1` (stereo not drawn) [Alpha lipoic acid, Alpha Lipoic Acid], the survival rate (murine neuroblastoma) is given as “about 10%” and the “number of surviving animals” value (mice [6]) is given as “doubled”.

B1: papain (protein, UniProt P00784 134-345, looked up)
Papain: IPEYVDWRQKGAVTPVKNQGSCGSCWAFSAVVTIEGIIKIRTGNLNEYSEQELLDCDRRSYGCNGGYPWSALQLVAQYGIHYRNTYPYEGVQRYCRSREKGPYAAKTDGVRQVQPYNEGALLYSIANQPVSVVLEAAGKDFQLYRGGIFVGPCGNKVDHAVAAVGYGPNYILIKNSWGTGWGENGYIRIKRGTGNSYGVCGLYTSSFYPVKN
For B1, the survival (rats) is given as 50%.
